Reference: patent US11596165B2, “Compositions, their use, and methods for their formation” (Cambridge Glycoscience Ltd, priority 2018, dated 2023)

Legend:
[1] = Solubility of cellobiose when combined with xylo-oligosaccharides; format: physicochemical; conditions: 20-320 mg/mL, vortexed 30 seconds, in the presence of half or the same concentration of xylo-oligosaccharides (e.g., at 80 mg/mL)
Description: 1. Solutions/suspensions of cellobiose at concentrations from 20-320 mg/mL were vortexed for 30 seconds alone (FIG. 4, panel a), in the presence of half the concentration of xylo-oligosaccharides (FIG. 4, panel b), or the same concentration of xylo-oligosaccharides (FIG. 4, panel c).

[2] = Hygroscopicity of oligosaccharide powder at 25° C. in 100% humidity; format: physicochemical; conditions: 5 g, 10 hours at 25° C. in 100% humidity
From the text: The compositions are to be used in a wide range of foodstuff, cosmetic, or nutraceutical applications, therefore the required hygroscopicity for each application can vary. The aim of this example was to test if hygroscopicity can be adapted by altering the oligosaccharide compositions. • 1. 5 g of oligosaccharide compositions (cellobiose, 4:1 cellobiose:xylo-oligosaccharide, 3:2 cellobiose:xylo-oligosaccharide, 2:3 cellobiose:xylo-oligosaccharide, 1:4 cellobiose:xylo-oligosaccharide, xylo-oligosaccharide) were incubated for 10 hours at 25° C. in 100% humidity. • 2.

For `O=C[C@H](O)[C@@H](O)[C@H](O[C@@H]1O[C@H](CO)[C@@H](O)[C@H](O)[C@H]1O)[C@H](O)CO` [cellobiose], the dissolution of cellobiose [1] was “enabled more readily at higher concentrations” and the water uptake [2] was “effectively resisted water uptake”.
